Nine compounds from patent US6306860A, “2,5-pyridinedicarboxylic acid derivatives” (Dong Wha Pharm. Inc. Co., Ltd., priority 1998, dated 2001) can be followed below.

Where a name gives a salt, the structure may show the parent alone.

One assay addresses T1, HBV polymerase (Hepatitis B virus genotype D subtype ayw, UniProt P03156).
T1 construct: made in house; host or cells: E. coli
The assay is described as follows: Inhibitory activities against HBV polymerase (reverse transcriptase activity) in vitro. In kind it is biochemical. Particulars: read-out: Inhibitory activity of HBV-RT (%); for inhibition at 0.01 µg/mL: 0.01 μg/ml; for inhibition at 0.1 µg/mL: 0.1 μg/ml; for inhibition at 1 µg/mL: 1 μg/ml. A digest of the protocol: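 Recombinant HBV polymerase expressed in E. coli was incubated with reaction mixture and test compound for 18~24 hours at 14° C.~30° C. Reverse transcriptase product, labelled with biotin- and DIG-modified nucleotide, detected ELISA-style with peroxidase anti-DIG antibody; inhibition judged relative to controls without compound.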

Assay [1] addresses T2, HIV reverse transcriptase (Human immunodeficiency virus type 1 group M subtype B, UniProt P04585).
T2 construct: purchased Boehringer Mannheim
The assay is described as follows: In vitro inhibition test against HIV reverse transcriptase. It is filed as biochemical. Particulars: read-out: Inhibitory activity of HIV-RT (%); for inhibition at 0.1 µg/mL: 0.1 μg/ml; for inhibition at 1 µg/mL: 1 μg/ml. In short, it runs like this: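 Non-radioactive colorimetric kit assay: 40 ng HIV-RT with poly(A)/oligo(dT)15 template/primer plus DIG-dUTP, biotin-dUTP and TTP, incubated with compound 1 h at 37 °C. Product captured on streptavidin, detected with anti-DIG-POD and ABTS; A405 read, with activity compared to a no-compound control.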

T1 sequence (P03156 whole entry): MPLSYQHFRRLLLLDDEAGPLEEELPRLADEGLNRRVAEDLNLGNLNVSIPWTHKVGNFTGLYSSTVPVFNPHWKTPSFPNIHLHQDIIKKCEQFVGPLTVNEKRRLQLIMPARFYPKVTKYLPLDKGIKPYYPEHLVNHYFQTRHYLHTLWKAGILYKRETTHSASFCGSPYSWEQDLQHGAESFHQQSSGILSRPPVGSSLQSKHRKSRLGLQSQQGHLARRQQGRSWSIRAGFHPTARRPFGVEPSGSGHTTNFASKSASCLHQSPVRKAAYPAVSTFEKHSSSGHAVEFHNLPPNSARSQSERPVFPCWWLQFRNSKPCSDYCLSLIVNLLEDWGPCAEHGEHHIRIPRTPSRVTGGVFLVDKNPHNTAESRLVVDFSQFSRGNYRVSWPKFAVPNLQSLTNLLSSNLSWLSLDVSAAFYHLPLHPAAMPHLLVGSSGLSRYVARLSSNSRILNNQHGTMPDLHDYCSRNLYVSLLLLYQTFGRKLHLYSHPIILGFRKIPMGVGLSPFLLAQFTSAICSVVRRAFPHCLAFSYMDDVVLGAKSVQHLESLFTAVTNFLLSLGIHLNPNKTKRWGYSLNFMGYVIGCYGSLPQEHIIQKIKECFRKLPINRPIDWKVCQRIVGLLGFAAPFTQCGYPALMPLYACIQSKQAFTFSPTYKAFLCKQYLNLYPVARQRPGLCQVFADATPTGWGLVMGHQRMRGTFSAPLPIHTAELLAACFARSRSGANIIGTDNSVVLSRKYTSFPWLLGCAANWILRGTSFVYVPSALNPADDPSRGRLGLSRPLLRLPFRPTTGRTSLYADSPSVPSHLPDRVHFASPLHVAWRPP

For `CC(C)Nc1cccnc1N1CCN(C(=O)c2ccc(C(=O)NCc3ccccn3)cn2)CC1` [Exam. 73, 6-[1-[3-(isopropylamino)-2-pyridyl]piperazin-4-yl-carbonyl]-N-(2-pyridylmethyl)nicotinamide.HCl], at HBV polymerase, the inhibition at 0.01 µg/mL came to 53%, the inhibition at 0.1 µg/mL stood at 62% and the inhibition at 1 µg/mL turned out to be 77%. Besides, in assay [1], the inhibition at 0.1 µg/mL came out at 57% and the inhibition at 1 µg/mL is 73%.
Taken in the same sequence, the figures for `CCNc1cccnc1N1CCN(C(=O)c2ccc(C(=O)NCc3ccccn3)cn2)CC1` [Exam. 74, 6-[1-[3-(ethylamino)-2-pyridyl]piperazin-4-yl-carbonyl]-N-(2-pyridylmethyl)nicotinamide] were 19%, 56%, 70%, 61% and 80%.
Taken in the same sequence, the figures for `Nc1cccnc1N1CCN(C(=O)c2ccc(C(=O)NCc3ccccn3)cn2)CC1` [Exam. 75, 6-[1-(3-amino-2-pyridyl)piperazin-4-yl-carbonyl]-N-(2-pyridylmethyl)nicotinamide.HCl] were 22%, 54%, 72%, 53% and 72%.
The corresponding values for `CC(C)Nc1cccnc1N1CCN(C(=O)c2ccc(C(=O)NCc3cccnc3)cn2)CC1` [Exam. 76, 6-[1-[3-(isopropylamino)-2-pyridyl]piperazin-4-yl-carbonyl]-N-(3-pyridylmethyl)nicotinamide] are 30%, 53%, 62%, 57% and 82%.
Regarding `CC(C)Nc1cccnc1N1CCN(C(=O)c2ccc(C(=O)NCc3ccncc3)cn2)CC1` [Exam. 77, 6-[1-[3-(isopropylamino)-2-pyridyl]piperazin-4-yl-carbonyl]-N-(4-pyridylmethyl)nicotinamide], at HBV polymerase, the inhibition at 0.01 µg/mL amounted to 39%, the inhibition at 0.1 µg/mL is 65% and the inhibition at 1 µg/mL was 79%. In assay [1], the inhibition at 0.1 µg/mL turned out to be 59% and the inhibition at 1 µg/mL was 79%.
As for `Cc1ncc(CO)c(CNC(=O)c2ccc(C(=O)N3CCN(c4ncccc4NC(C)C)CC3)nc2)c1O` [Exam. 78], on HBV polymerase, the inhibition at 0.01 µg/mL was 15%, the inhibition at 0.1 µg/mL is 58% and the inhibition at 1 µg/mL is 62%. Further, in assay [1], the inhibition at 0.1 µg/mL amounted to 52% and the inhibition at 1 µg/mL amounted to 70%.
Taken in the same sequence, the figures for `CC(C)Nc1cccnc1N1CCN(C(=O)c2ccc(C(=O)NCc3ccco3)cn2)CC1` [Exam. 79, N-(2-Furylmethyl)-6-[1-[3-(isopropylamino)-2-pyridyl]piperazin-4-yl-carbonyl]nicotinamide.HCl] were 54%, 63%, 78%, 20% and 54%.
Taken in the same sequence, the figures for `CC(C)Nc1cccnc1N1CCN(C(=O)c2ccc(C(=O)NCCc3c[nH]cn3)cn2)CC1` [Exam. 80, N-[2-(1H-imidazol4-yl)ethyl]-6-[1-[3-(isopropylamino)-2-pyridyl]piperazin-4-yl-carbonyl]nicotinamide] were 52%, 61%, 70%, 21% and 48%.
Take `CC(C)Nc1cccnc1N1CCN(C(=O)c2ccc(C(=O)NCCc3cccs3)cn2)CC1` [Exam. 81, 6-[1-[3-(isopropylamino)-2-pyridyl]piperazin-4-yl-carbonyl]-N-[2-(2-thienyl)ethyl]nicotinamide]: on HBV polymerase, the inhibition at 0.01 µg/mL turned out to be 44%, the inhibition at 0.1 µg/mL turned out to be 60% and the inhibition at 1 µg/mL stood at 80%. Further, in assay [1], the inhibition at 0.1 µg/mL turned out to be 54% and the inhibition at 1 µg/mL is 75%.
